Reference: PMC2771346 (Molecular microbiology, 2009)

Molecular target: ObgE (Escherichia coli, UniProt P42641)
Assay: inhibition of single-turnover GTP hydrolysis, TLC of gamma-32P-GTP
Type: biochemical

Sequence of ObgE (P42641 whole entry): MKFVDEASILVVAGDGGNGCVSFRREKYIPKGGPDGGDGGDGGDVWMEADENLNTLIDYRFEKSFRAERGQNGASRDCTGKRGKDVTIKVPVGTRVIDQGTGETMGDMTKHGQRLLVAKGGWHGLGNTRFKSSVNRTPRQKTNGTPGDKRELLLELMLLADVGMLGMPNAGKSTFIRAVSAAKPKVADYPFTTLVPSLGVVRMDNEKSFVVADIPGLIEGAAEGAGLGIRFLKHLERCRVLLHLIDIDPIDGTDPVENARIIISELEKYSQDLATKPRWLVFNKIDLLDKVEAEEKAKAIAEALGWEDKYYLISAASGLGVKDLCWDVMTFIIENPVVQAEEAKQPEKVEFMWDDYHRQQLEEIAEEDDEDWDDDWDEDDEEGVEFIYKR

Ki: 1600 ± 400 nM
SMILES: Nc1nc2c(ncn2[C@@H]2O[C@H](COP(=O)(O)OP(=O)(O)O)[C@@H](O)[C@H]2O)c(=O)[nH]1 [GDP]
